Where two headings read alike, the source gives them in different places.
Assays:
[1] = tested on: human breast cancer cell line (MDA-MB-231); test: MTT cytotoxic assay, MDA-MB-231; assay type: cell-based; details: MDA-MB-231, MTT, 48 h exposure, read-out: IC50 MDA-MB-231
Method: (§1) The in vitro antiproliferative activity of DAA derivatives (1–5, 6a–k, 7a–k) were evaluated by MTT assay against human hepatocarcinoma cell line (SMMC-7721), human breast cancer cell line (MDA-MB-231), human cervical carcinoma cell line (HeLa), mouse colon cancer cell line (CT-26) and human normal hepatocyte cell line (QSG-7701). Nocodazole was co-assayed as the positive control and DMEM culture medium containing 0.1% DMSO was used as negative control. The results of the tested compounds expressed as IC50 values (concentration required to inhibit tumor cell proliferation by 50%) were presented in Table 1.
(§2) The human hepatocarcinoma cell line (SMMC-7721), human breast cancer cell line (MDA-MB-231), human cervical carcinoma cell line (HeLa), mouse colon cancer cell line (CT-26) and human normal hepatocyte cells (QSG-7701) used in this study were all obtained from Keygene Biotech., China. These cell lines were maintained in DMEM medium supplemented with 10% heat-inactivated fetal bovine serum in a humidified atmosphere of 5% CO2 at 37 °C.
(§3) The in vitro cytotoxic activities of the benzimidazole derivatives of dehydroabietic acid were evaluated against tested cell lines via the MTT colorimetric method. Briefly, different tumor cells were grown in DMEM medium supplemented with 10% fetal bovine serum, penicillin (100 U mL^−1), and streptomycin (50 μg mL^−1). Cells were harvested at log phase of growth and seeded in 96-well plates (100 μL per well at a density of 2 × 10^5 cells mL^−1). After 24 h incubation at 37 °C and 5% CO2 to allow cell attachment, cultures were exposed to various concentrations of the isolated compounds for 48 h. Finally, MTT solution (2.5 mg mL^−1 in PBS) was added (40 μL per well). Plates were further incubated for 4 h at 37 °C, and the formazan crystals formed were dissolved by adding 150 μL per well of DMSO. Absorption at 570 nm was measured with an ELISA plate reader. The results were expressed as IC50 values with standard deviations, which was defined as the concentration at which 50% survival of cells was discerned. Nocodazole was co-assayed as positive control.

[2] = tested on: mouse colon cancer cell line (CT-26); test: MTT cytotoxic assay, CT-26; assay type: cell-based; details: MTT, 48 h exposure, read-out: IC50 CT-26
Method: as §1, §2, §3

[3] = tested on: human normal hepatocyte cell line (QSG-7701); test: MTT cytotoxic assay, QSG-7701; assay type: cell-based; details: QSG7701, 48 h exposure
Method: as §1, §2, §3

[4] = tested on: human hepatocarcinoma cell line (SMMC-7721); test: MTT cytotoxic assay, SMMC-7721; assay type: cell-based; details: MTT, 48 h exposure, read-out: IC50 SMMC-7721
Method: as §1, §2, §3

[5] = tested on: human cervical carcinoma cell line (HeLa); test: MTT cytotoxic assay, HeLa; assay type: cell-based; details: MTT, 48 h exposure, read-out: IC50 HeLa
Method: as §1, §2, §3

Porcine brain tubulin = target: T1, Porcine brain tubulin (Sus scrofa, UniProt P02550+P02554); test: In vitro tubulin polymerization inhibition assay (OD340); assay type: biochemical; details: 10 μM, 37 °C, 1 h, versus blank control
T1 construct: purchased Cytoskeleton, Inc. BK004P; host or cells: porcine brain tissue
T1 sequence (P02554 whole entry): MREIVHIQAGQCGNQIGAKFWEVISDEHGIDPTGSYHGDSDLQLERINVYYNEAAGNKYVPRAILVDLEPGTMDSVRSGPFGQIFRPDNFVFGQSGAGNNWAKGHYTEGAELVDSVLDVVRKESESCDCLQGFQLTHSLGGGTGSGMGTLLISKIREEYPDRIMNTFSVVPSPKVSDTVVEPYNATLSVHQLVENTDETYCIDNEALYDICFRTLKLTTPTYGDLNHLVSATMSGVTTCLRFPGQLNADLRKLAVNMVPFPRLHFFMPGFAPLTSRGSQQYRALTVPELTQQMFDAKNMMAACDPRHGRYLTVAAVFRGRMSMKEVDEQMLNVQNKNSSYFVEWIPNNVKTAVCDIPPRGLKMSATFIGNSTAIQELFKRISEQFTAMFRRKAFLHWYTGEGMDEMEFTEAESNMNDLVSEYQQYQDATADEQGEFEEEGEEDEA
T1 sequence (P02550 whole entry): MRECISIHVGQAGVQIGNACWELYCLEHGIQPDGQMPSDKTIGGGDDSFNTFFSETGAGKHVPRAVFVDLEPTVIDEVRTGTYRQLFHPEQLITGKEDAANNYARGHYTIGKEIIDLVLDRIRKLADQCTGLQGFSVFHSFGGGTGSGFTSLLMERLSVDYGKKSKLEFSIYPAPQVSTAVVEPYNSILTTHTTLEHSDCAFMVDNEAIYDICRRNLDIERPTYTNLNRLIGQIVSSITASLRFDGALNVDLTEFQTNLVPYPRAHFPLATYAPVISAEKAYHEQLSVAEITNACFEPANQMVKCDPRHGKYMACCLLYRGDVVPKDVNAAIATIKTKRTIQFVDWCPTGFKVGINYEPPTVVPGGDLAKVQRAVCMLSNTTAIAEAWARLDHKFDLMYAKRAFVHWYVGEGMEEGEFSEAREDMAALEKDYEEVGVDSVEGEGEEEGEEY
Method: The in vitro tubulin polymerization inhibition assay was carried out by using the Tubulin Polymerization Assay Kit (Cytoskeleton, Inc., USA) according to the protocol in the manual. Porcine brain tubulin was incubated with compound 6j at concentrations of 5 and 10 μM. The positive control colchicine and negative control taxol were co-assayed at the concentration of 10 μM, and G-PEM buffer was used as the blank control.
The tubulin polymerization assay was accomplished using a commercial assay kit (cat. #BK004P) purchased from Cytoskeleton, Inc. (Danvers, MA, USA). Tubulin isolated from porcine brain tissue was used in this tubulin polymerization assay kit. Tubulin polymerizations are followed by an increase in optical density at 340 nm (OD340) over a 60 min period at 37 °C due to the light scattered by microtubule polymer. At first, tubulin (4 mg) was disovled in 1 mL of G-PEM buffer containing 80 mM piperazine-N,N′-bis(2-ethanesulfonic acid) sequisodium salt (PIPES, pH 6.9), 2.0 mM MgCl2, 0.5 mM EGTA and 1 mM GTP to prepare tubulin solution. Subsequently, 10 μL of 10 × stock solutions of the tested compounds at different concentrations were added to a prewarmed 96-well plate and incubated at 37 °C for 2 min, then 90 μL of tubulin solution was also added into each well to initiate the reaction. The optical intensity (OD340) of each well was recorded every 60 s for 60 min (Cytation 3 Cell Imaging Multi-Mode Reader, BioTek Instruments, Inc., USA). Colchicine and taxol were co-assayed as the positive control and negative control, respectively. G-PEM buffer was used as the blank control.

SMILES | IC50 [1] [µM] | IC50 ([2]; Mus musculus, CT26, 48 h) [µM] | IC50 [3] [µM] | IC50 ([4]; Homo sapiens, SMMC-7721, 48 h) [µM] | IC50 [5] [µM] | melting point [°C] | IC50 [2] [µM] | IC50 [4] [µM] | effect on tubulin polymerization speed and final absorbance (OD340) (Porcine brain tubulin)
COC(=O)[C@]1(C)CCC[C@]2(C)c3cc(Br)c4nc(-c5ccccc5)[nH]c4c3CCC12 (some centres unmarked) [Compound 6a, Methyl 2′-phenyl-12-bromo-13,14-imidazolyl-deisopropyl-dehydroabietate] | 41.7 ± 2.06 | 6.34 ± 0.83 | > 50 | 12.5 ± 0.45 | 16.2 ± 1.73 | 123 to 125 |  |  | 
COC(=O)[C@]1(C)CCC[C@]2(C)c3cc(Br)c4nc(-c5cccc(F)c5)[nH]c4c3CCC12 (some centres unmarked) [Compound 6d, Methyl 2′-(3-fluorophenyl)-12-bromo-13,14-imidazolyl-deisopropyl-dehydroabietate] | 12 ± 1.31 | < 5 | > 50 | < 5 | 17.7 ± 3.02 | 142 to 144 | 3.39 ± 0.33 | 5.27 ± 0.27 | 
COC(=O)[C@]1(C)CCC[C@]2(C)c3cc(-c4cc(OC)c(OC)c(OC)c4)c4nc(-c5ccccc5)[nH]c4c3CCC12 (some centres unmarked) [Compound 7a, Methyl 2′-phenyl-12-(3,4,5-trimethoxyphenyl)-13,14-imidazolyl-deisopropyl-dehydroabietate] | > 50 | 8.25 ± 0.5 | > 50 | 9.38 ± 1.02 | 13.1 ± 1.7 | 153 to 155 |  |  | 
COC(=O)[C@]1(C)CCC[C@]2(C)c3cc(-c4cc(OC)c(OC)c(OC)c4)c4nc(-c5ccc(Br)cc5)[nH]c4c3CCC12 (some centres unmarked) [Compound 7h, Methyl 2′-(4-bromophenyl)-12-(3,4,5-trimethoxyphenyl)-13,14-imidazolyl-deisopropyl-dehydroabietate] | 8.84 ± 1.08 | < 5 | > 50 | > 50 | 29.9 ± 3.07 | 150 to 152 | 2.76 ± 0.26 |  | 
CC(=O)O[C@H]1C(=O)[C@@]2(C)[C@H]([C@H](OC(=O)c3ccccc3)[C@]3(O)C[C@H](OC(=O)[C@H](O)[C@@H](NC(=O)c4ccccc4)c4ccccc4)C(C)=C1C3(C)C)[C@]1(OC(C)=O)CO[C@@H]1C[C@@H]2O [taxol, reference compound] |  |  |  |  |  |  |  |  | obviously increased the speed of tubulin polymerization and the final absorbance
COC(=O)[C@]1(C)CCC[C@]2(C)c3cc(-c4cc(OC)c(OC)c(OC)c4)c4nc(-c5ccc(Cl)cc5)[nH]c4c3CCC12 (some centres unmarked) [Compound 7f, Methyl 2′-(4-chlorophenyl)-12-(3,4,5-trimethoxyphenyl)-13,14-imidazolyl-deisopropyl-dehydroabietate] | 10.1 ± 1.38 | < 5 | > 50 | 11 ± 2.68 | 17.2 ± 2.32 | 168 to 170 | 3.44 ± 0.75 |  | 
